Measured values reported in article PMC11359809, “Probing the molecular basis for signal transduction through the Zinc-Activated Channel (ZAC)” (Biochemical pharmacology, 2021).
Substitutions are numbered along the chain they refer to. Values joined by “and” are separate entries in the source; they are usually repeats but may differ in a detail not shown here. Equal entries are not always repeated.

Columns and labels:
ZAC^E160A/E162A/C195A = biological target: T1, ZAC^E160A/E162A/C195A (Homo sapiens, UniProt Q401N2, A152T/C219A/E184A/E186A); test: TEVC in oocytes, Cluster 4 triple mutant; assay type: cell-based; details: agonist; n = 6
T1 construct: expressed in transfected cells; host or cells: Xenopus oocytes injected with cRNA (pUNIV vector)
T1 sequence (Q401N2 26-412 A152T/E184A/E186A/C219A): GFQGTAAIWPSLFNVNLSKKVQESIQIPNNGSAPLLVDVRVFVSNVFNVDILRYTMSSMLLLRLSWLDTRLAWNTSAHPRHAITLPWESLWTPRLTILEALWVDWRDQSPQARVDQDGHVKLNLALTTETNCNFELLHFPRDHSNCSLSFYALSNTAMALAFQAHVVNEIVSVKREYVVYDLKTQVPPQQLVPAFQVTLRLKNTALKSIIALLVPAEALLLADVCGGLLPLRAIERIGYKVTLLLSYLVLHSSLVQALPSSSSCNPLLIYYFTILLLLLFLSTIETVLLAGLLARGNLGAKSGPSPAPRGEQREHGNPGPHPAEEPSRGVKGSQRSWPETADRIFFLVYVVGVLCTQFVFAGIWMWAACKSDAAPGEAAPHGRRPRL
Description: (§1) The recordings were performed at room temperature.
(§2) Analysis of the data from the TEVC recordings were performed using Clampfit software version 10.5 (Molecular Devices, Crawley, UK) and GraphPad Prism version 7.0c (GraphPad Software, La Jolla, CA). Unless otherwise stated, the inward currents induced by agonists in oocytes were normalized to the maximal response elicited by a specific agonist (agonist Imax) on each oocyte. Concentration-response and concentration-inhibition curves were fitted in GraphPad Prism by nonlinear regression using the equation for sigmoidal dose-response with variable slope. Each data point represents the mean ± S.E.M. value of recordings performed on at least five oocytes in total from at least two different batches. […] The null hypothesis was rejected at P < 0.05, and the differences between the means were analyzed by Tukey’s multiple comparisons test.
(§3) The putative involvement of candidate residues in Clusters 1, 2, 3 and 4 in Zn^2+ binding to ZAC was investigated in by an elaborate alanine mutagenesis scanning. […] The determined IpH 4.0 value was used in part as a control and in part to enable the distinction of ZAC mutants non-responsive to Zn^2+ due to elimination of their ability to bind the metal ion from those where the mutation had eliminated cell surface expression and/or disrupted overall functionality of the receptor complex. […]

ZAC^L9′I = biological target: T2, ZAC^L9′I (Homo sapiens, UniProt Q401N2, A152T/L270I); test: TEVC in oocytes, ZAC L9′I mutant; assay type: cell-based; details: agonist; n = 8
T2 construct: expressed in transfected cells; host or cells: Xenopus oocytes (cRNA injection, pUNIV vector)
T2 sequence (Q401N2 26-412 A152T/L270I): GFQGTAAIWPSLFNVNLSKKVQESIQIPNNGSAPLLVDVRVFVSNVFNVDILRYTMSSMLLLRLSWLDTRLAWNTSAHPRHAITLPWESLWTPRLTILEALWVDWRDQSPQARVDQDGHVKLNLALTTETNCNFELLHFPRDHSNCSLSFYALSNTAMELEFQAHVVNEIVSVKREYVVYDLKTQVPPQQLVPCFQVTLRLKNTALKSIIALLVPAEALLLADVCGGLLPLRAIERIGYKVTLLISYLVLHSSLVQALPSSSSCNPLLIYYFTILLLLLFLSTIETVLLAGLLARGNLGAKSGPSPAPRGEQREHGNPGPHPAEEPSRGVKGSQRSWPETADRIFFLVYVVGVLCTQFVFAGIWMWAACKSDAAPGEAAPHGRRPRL
Description: as §1
(§4) Analysis of the data from the TEVC recordings were performed using Clampfit software version 10.5 (Molecular Devices, Crawley, UK) and GraphPad Prism version 7.0c (GraphPad Software, La Jolla, CA). Unless otherwise stated, the inward currents induced by agonists in oocytes were normalized to the maximal response elicited by a specific agonist (agonist Imax) on each oocyte. Concentration-response and concentration-inhibition curves were fitted in GraphPad Prism by nonlinear regression using the equation for sigmoidal dose-response with variable slope. Each data point represents the mean ± S.E.M. value of recordings performed on at least five oocytes in total from at least two different batches. For the data where statistical analysis was performed, a one-way ANOVA was used. The null hypothesis was rejected at P < 0.05, and the differences between the means were analyzed by Tukey’s multiple comparisons test.

ZAC^D116A/DH8A/H210A = biological target: T3, ZAC^D116A/DH8A/H210A (Homo sapiens, UniProt Q401N2, A152T/D140A/D142A/H144A); test: TEVC in oocytes, Cluster 1 triple mutant; assay type: cell-based; details: 10 mM Zn^2+
T3 construct: expressed in transfected cells; host or cells: Xenopus oocytes injected with cRNA (pUNIV vector)
T3 sequence (Q401N2 26-412 D140A/D142A/H144A/A152T): as the sequence (Q401N2 26-412 A152T/E184A/E186A/C219A) above, with D115A, D117A, H119A, A159E, A161E, A194C counted along it
Description: as §1, §2, §3

ZAC^H79A = test: TEVC in oocytes, ZAC H79A mutant; assay type: cell-based, human; details: agonist; parallel recordings
Description: as §1, §2, §3

ZAC^L9′A = biological target: T4, ZAC^L9′A (Homo sapiens, UniProt Q401N2, A152T/L270A); test: TEVC in oocytes, ZAC L9′A mutant; assay type: cell-based; details: agonist; n = 7
T4 construct: expressed in transfected cells; host or cells: Xenopus oocytes injected with cRNA (pUNIV vector)
T4 sequence (Q401N2 26-412 A152T/L270A): T2 sequence (Q401N2 26-412 A152T/L270I) with I245A
Description: as §1, §4

WT ZAC = biological target: T5, WT ZAC (Homo sapiens, UniProt Q401N2, A152T); test: TEVC in Xenopus oocytes expressing WT ZAC; assay type: cell-based
T5 construct: expressed in transfected cells; host or cells: Xenopus oocytes injected with cRNA (pUNIV vector)
T5 sequence (Q401N2 26-412 A152T): T2 sequence (Q401N2 26-412 A152T/L270I) with I245L
Description: as §1, §4

[1] = biological target: T6, ZAC^E136A/H139A/D143A/H144A (Homo sapiens, UniProt Q401N2, A152T/D167A/E160A/H163A/H168A); test: TEVC in oocytes, Cluster 2 quadruple mutant; assay type: cell-based; details: Zn^2+ 10 mM; H^+ pH 4.0; data not shown
T6 construct: expressed in transfected cells; host or cells: Xenopus oocytes injected with cRNA (pUNIV vector)
T6 sequence (Q401N2 26-412 A152T/E160A/H163A/D167A/H168A): as the sequence (Q401N2 26-412 A152T/E184A/E186A/C219A) above, with E135A, H138A, D142A, H143A, A159E, A161E, A194C counted along it
Description: as §1, §2, §3

[2] = agonist, oocytes of the Cluster 3 recordings, n = 12
[3] = agonist, parallel recordings with Cluster 4 mutant, n = 5
[4] = agonist, section 3.1 recordings, n = 8
[5] = sustained (4 min) application of 10 mM Zn^2+

## [Cl-].[Cl-].[Zn+2] [Zn^2+, ZnCl2]
ZAC^E160A/E162A/C195A
  EC50: 180 µM
  pEC50 ± S.E.M.: 3.75 ± 0.05
ZAC^L9′I
  EC50: 24 µM
  nH ± S.E.M. (Hill slope): 0.8 ± 0.2
  pEC50 ± S.E.M.: 4.62 ± 0.15
ZAC^D116A/DH8A/H210A
  I10 mM Zn2+ range: 10–30 nA
ZAC^H79A
  fitted EC50 relative to WT ZAC (higher): 2.4 fold
ZAC^L9′A
  EC50: 230 µM
  nH ± S.E.M. (Hill slope): 1.2 ± 0.2
  pEC50 ± S.E.M.: 3.64 ± 0.08
WT ZAC; 10 mM Zn^2+, mean ± S.E.M., n = 19
  Imax (current amplitude evoked by saturating agonist): 0.58 ± 0.10 μA
WT ZAC; agonist, a couple of oocyte batches with 5–10-fold higher potency (Cluster 1 double/triple mutant experiments)
  EC50: ~100 µM
WT ZAC; agonist, n = 8
  nH ± S.E.M. (Hill slope): 1.5 ± 0.2
WT ZAC; agonist, normal potency in the vast majority of oocyte batches in this work and in two other studies
  EC50: 500 to 1000 µM
WT ZAC; [2]
  EC50: 98 µM
  pEC50 ± S.E.M.: 4.01 ± 0.03
WT ZAC; [3]
  EC50: 310 µM
  pEC50 ± S.E.M.: 3.51 ± 0.05
WT ZAC; [4]
  EC50: 500 µM
  pEC50 ± S.E.M.: 3.30 ± 0.04
WT ZAC; [5]
  Iresidual, 4 min: 21 % of Ipeak and 21 ± 3 % of Ipeak
  Δtstart-to-peak: 4.8 ± 0.5 s
[1]
  agonist responsiveness: non-responsive
